Laboratory results from paper PMC12040169 (PLOS Biology, 2025).

Assay: in vitro
Conditions: human, hela cells, % viability

SMILES | viability at 28.5 h, 10 µM | viability at 28.5 h, 10 µM (bulk resorufin, single well)
COc1ccccc1NC(=O)/C(=C\c1cccnc1)NC(=O)c1ccccc1 [CBK261649] | 89.6% | –
O=C(O)/C=C/c1cccc(/C=C/C(=O)O)c1 [CBK261650] | 89.9% | –
COc1cc(/C=N/O)ccc1Oc1ccc([N+](=O)[O-])cc1[N+](=O)[O-] [CBK261651] | – | 92.5%
c1ccc(C[n+]2cn3cc(-c4ccccc4)nc3[n-]2)cc1 [CBK261654] | 94% | –
COc1ccc(OC(=O)c2cc(S(=O)(=O)N3CCOCC3)ccc2Cl)cc1 [CBK261655] | 88.9% | –
C(=C/c1ccccc1)/C=N/c1ccc2nc(-c3ccc(/N=C/C=C/c4ccccc4)cc3)[nH]c2c1 [CBK261656] | 87.9% | –
O=C(COC(=O)c1cc(S(=O)(=O)N2CCCCC2)ccc1Cl)c1ccccc1 [CBK261657] | 86% | –
O=C(NNC(=O)c1ccccc1C(=O)O)c1cccc(Cl)c1 [CBK261658] | 94.7% | –
Cc1ccc2nc(-c3ccc(/N=C/c4ccc(/C=N/c5ccc(-c6nc7ccc(C)cc7s6)cc5)cc4)cc3)sc2c1 [CBK261661] | 87.1% | –
O=C(NC1CCCCC1)c1cc(S(=O)(=O)N2CCOCC2)ccc1Cl [CBK261662] | 96% | –
O=[N+]([O-])c1ccc2c(c1)nnn2CN1CCCCC1 [CBK261663] | 90.4% | –
Cc1ccc(S(=O)(=O)c2ccc(C)c(S(N)(=O)=O)c2)cc1S(N)(=O)=O [CBK261664] | 83.6% | –
COc1ccc(/C=C/C(=O)c2ccc(OC)cc2OC)c(OC)c1 [CBK261666] | 87.3% | –
O=C(N/N=C\c1cccs1)c1n[nH]c2c1CCCC2 [CBK261667] | 110% | –
Cc1ccc(S(=O)(=O)c2ccc(C)c(S(=O)(=O)N3CCOCC3)c2)cc1S(=O)(=O)N1CCOCC1 [CBK261677] | 94.1% | –
O=[N+]([O-])c1ccccc1N/N=C/c1c[nH]c2ccccc12 [CBK261679] | 89.6% | –
O=C(CN1CCN(C(c2ccccc2)c2ccccc2)CC1)CN1C(=O)c2ccccc2C1=O [CBK261682] | 97.3% | –
Cn1c2c(c(=O)[nH]c1=O)C1(O)C(=O)c3ccccc3C1(O)N2 (centres unmarked) [CBK261683] | 105% | –
CC(C)C(Nc1nc2ncn(Cc3ccccc3)c2c(=O)[nH]1)C(=O)O (centres unmarked) [CBK261685] | 91.2% | –
CC1(C)CC(=O)C(=CNCCCn2ccnc2)C(=O)C1 [CBK261686] | 91.3% | –
O=C(N/N=C/c1cccnc1)c1cccc(F)c1 [CBK261689] | 101% | –

SMILES | viability at 28.5 h, 10 µM | viability at 28.5 h, 10 µM (bulk resorufin, single well)
COc1cc(C(c2c(C)n(C)n(-c3ccccc3)c2=O)c2c(C)n(C)n(-c3ccccc3)c2=O)ccc1O [CBK261690] | 110% | –
CC(=O)Nc1ccc(S(=O)(=O)NNC(=O)c2cccc(Cl)c2)cc1 [CBK261694] | 89.4% | –
O=C(O)C1CCCCC1C(=O)NCc1cccnc1 (centres unmarked) [CBK261695] | 91.7% | –
O=C(N/N=C/c1ccccc1Cl)c1ccc(C(=O)N/N=C/c2ccccc2Cl)cc1 [CBK261698] | 108% | –
COc1ccc(CC(=O)NNC(=O)c2ccc(C(C)(C)C)cc2)cc1 [CBK261700] | 92.5% | –
NC(=NOC(=O)c1cccc(Br)c1)c1ccccc1 [CBK261703] | 92.7% | –
COc1cccc(C(=O)NNC(=O)c2ccc(F)cc2)c1 [CBK261705] | 106% | –
O=C(NN=C1CCCCCCCCCCC1)c1cc2ccccc2cc1O [CBK261706] | 102% | –
C/C(=N\Nc1cc(-c2ccccc2)nc(C)n1)c1ccc(O)cc1 [CBK261710] | 87.9% | –
Fc1ccccc1/C=N/Nc1nccnc1Cl [CBK261711] | 87.8% | –
Cc1cc(NO)nc(-c2ccc(Br)cc2)n1 [CBK261713] | 97.6% | –
[O-][n+]1c2c([n+]([O-])c3c1CCCC3)CCCC2 [CBK261714] | 99.5% | –
Oc1ccc(C2N(O)C3CCCCC3N2O)cc1 (centres unmarked) [CBK261715] | 92.8% | –
Cc1c(Cl)c([N+](=O)[O-])nn1CC(=O)N1CCN(Cc2ccccc2)CC1 [CBK261720] | 89.8% | –
COc1ccc(-c2cc(-c3ccccc3)nc(N/N=C/c3ccc(O)c(C)c3O)n2)cc1 [CBK261721] | 101% | –
O=[N+]([O-])c1cccc(/C=N/Nc2nc(-c3ccccc3)cc(-c3ccccc3O)n2)c1 [CBK261722] | 95.8% | –
NS(=O)(=O)c1ccc(Nc2ncccc2[N+](=O)[O-])cc1 [CBK261724] | 91.6% | –
COc1ccc2c3c([nH]c2c1)C(C)N(CCC(=O)NN)CC3 (centres unmarked) [CBK261726] | 93.2% | –
Cc1nc([N+](=O)[O-])c(SCC(O)CN2CCCCC2)[nH]1 (centres unmarked) [CBK261727] | 88.7% | –
CN(C)CCN(C)Cc1ccc([N+](=O)[O-])cc1 [CBK261728] | 110% | –
CC1CCN(S(=O)(=O)c2cccc(S(=O)(=O)c3cccc(S(=O)(=O)N4CCC(C)CC4)c3)c2)CC1 [CBK261731] | 90% | –

SMILES | viability at 28.5 h, 10 µM | viability at 28.5 h, 10 µM (bulk resorufin, single well)
O=C(O)Cn1c2ccccc2c2cc([N+](=O)[O-])ccc21 [CBK261732] | 82.6% | –
Cc1ccc(S(=O)(=O)N2CCOCC2)cc1S(=O)(=O)N1CCOCC1 [CBK261733] | 90.8% | –
Cc1cc(C23CC4CC(CC(C(=O)O)(C4)C2)C3)c(C)cc1C12CC3CC(CC(C(=O)O)(C3)C1)C2 [CBK261734] | 112% | –
O=C(NC(=O)c1ccc2ccccc2c1)Nc1ccc(Br)cc1 [CBK261735] | 107% | –
O=C(Nc1cccc(O)c1)c1ccc(Br)c(S(=O)(=O)N2CCCCC2)c1 [CBK261736] | 91.9% | –
O=C(CSc1nc2ccccc2[nH]1)c1ccc2ccccc2c1 [CBK261739] | 104% | –
Cc1ccc(S(=O)(=O)c2ccc(C)c(S(=O)(=O)N3CCC(C)CC3)c2)cc1S(=O)(=O)N1CCC(C)CC1 [CBK261743] | 95.8% | –
O=C(CSc1nc(O)cc(=O)n1-c1ccccc1)c1ccccc1 [CBK261745] | 103% | –
CC1(C)Cc2c(ccc3ccccc23)C(CCN2CCCCC2)=N1 [CBK261746] | 116% | –
CC1CCCC(C)N1CC(O)COc1ccc(/N=C/c2ccccc2O)cc1 (centres unmarked) [CBK261748] | 89.6% | –
CC(C)(C)c1cc(CN2CCN(CCO)CC2)cc(C(C)(C)C)c1O [CBK261753] | 95.4% | –
O=[N+]([O-])c1ccccc1S(=O)(=O)N1CCN(c2ccccc2)CC1 [CBK261755] | 85.8% | –
OCCN1CCN(Cc2cc(Br)cs2)CC1 [CBK261758] | 96% | –
O=S(=O)(NC(c1ccccc1)c1ccccc1)c1ccc(Cl)cc1 [CBK261759] | 104% | –
NNC(=O)c1cc(-c2ccc(-c3ccccc3)cc2)nc2ccc(Br)cc12 [CBK261760] | 104% | –
O=C(Nc1ccccc1C(=O)O)c1ccc(Cl)c(S(=O)(=O)N2CCCCC2)c1 [CBK261763] | 113% | –
CC1CCCC(C)N1CC(O)COc1ccc(/N=C/c2ccccc2)cc1 (centres unmarked) [CBK261764] | 78.5% | –
Cc1cc(C)n2nc(C(=O)N/N=C/c3ccc(O)cc3)nc2n1 [CBK261765] | 85.4% | –
O=C(CCC(=O)Nc1ccc(F)cc1)N/N=C/c1ccc(O)cc1O [CBK261766] | 112% | –
O=S(=O)(NCCCn1ccnc1)c1cc(Cl)ccc1Cl [CBK261767] | 105% | –
